Test system: anti-Aβ mAb (6E10)
Experiment: Surface plasmon resonance (SPR) binding to immobilized anti-Aβ monoclonal antibody 6E10
Settings: 6E10 immobilized on the surface of the SPR chip
Procedure: SPR tests were carried out using a Biacore T100 instrument (Biacore AB, Uppsala, Sweden). A ligand, biotin-labeled 6E10 monoclonal antibody (Covance, Princeton, N.J.), was immobilized at a concentration of 10 mg/ml in PBS onto a CAP sensor chip, Series S, using a Biotin CAPture Kit (GE Healthcare, Piscataway, N.J.). The sensor chip was loaded with a streptavidin capture reagent and regenerated according to the manufacturer's instruction, including an additional regeneration step using 0.25 MNaOH in 30% acetonitrile. Binding of Aβ symmetroadhesins and Aβ peptides was carried out at 25° C. in 10 mM Hepes buffer, pH 7,4, 150 mM NaCl, 3 mM EDTA, and 0.005 vol % Tween-20. Data was evaluated using Biacore T100 Evaluation Software, version 2.0.3.
Accordingly, the present inventors characterized the binding of the Aβ symmetroadhesins of the present inventors to one of these antibodies (6E10) using surface plasmon resonance (SPR). The present inventors compared the binding of Aβ peptides containing the [sequence] sequence (SEQ ID No. 2) which were expected to bind to 6E10 in a one-handed manner.

binding to immobilized 6E10 (observed or not): No binding
Substance: Fc6: recombinant human IgG1 Fc protein beginning at 226CPPC core hinge, N-terminal cysteine, expressed in CHO cells
